This is an account of results in publication PMC9639207 (RSC Advances, 2022).

Data set [1] is described as follows: In vitro stability on incubation with mouse serum. Type of data set: in vitro ADME. Conditions: for half-life at 200 µM: mouse, serum; for Fold in vitro half-life relative to native GLP-1, serum incubation: ratio to native GLP-1 (55.7 min), mouse serum, 37 °C.
The target of data set [2] is dipeptidyl peptidase-IV (DPP-IV) (Homo sapiens, UniProt P27487). In words: In vitro proteolytic stability against DPP-IV. Type of data set: in vitro ADME. Conditions: for half-life: isolated enzyme dpp iv, pH 7.4; for Fold in vitro half-life relative to native GLP-1, DPP-IV incubation: ratio to native GLP-1 (10.2 min), 37 °C.
dipeptidyl peptidase-IV (DPP-IV), sequence (P27487 whole entry, species assumed): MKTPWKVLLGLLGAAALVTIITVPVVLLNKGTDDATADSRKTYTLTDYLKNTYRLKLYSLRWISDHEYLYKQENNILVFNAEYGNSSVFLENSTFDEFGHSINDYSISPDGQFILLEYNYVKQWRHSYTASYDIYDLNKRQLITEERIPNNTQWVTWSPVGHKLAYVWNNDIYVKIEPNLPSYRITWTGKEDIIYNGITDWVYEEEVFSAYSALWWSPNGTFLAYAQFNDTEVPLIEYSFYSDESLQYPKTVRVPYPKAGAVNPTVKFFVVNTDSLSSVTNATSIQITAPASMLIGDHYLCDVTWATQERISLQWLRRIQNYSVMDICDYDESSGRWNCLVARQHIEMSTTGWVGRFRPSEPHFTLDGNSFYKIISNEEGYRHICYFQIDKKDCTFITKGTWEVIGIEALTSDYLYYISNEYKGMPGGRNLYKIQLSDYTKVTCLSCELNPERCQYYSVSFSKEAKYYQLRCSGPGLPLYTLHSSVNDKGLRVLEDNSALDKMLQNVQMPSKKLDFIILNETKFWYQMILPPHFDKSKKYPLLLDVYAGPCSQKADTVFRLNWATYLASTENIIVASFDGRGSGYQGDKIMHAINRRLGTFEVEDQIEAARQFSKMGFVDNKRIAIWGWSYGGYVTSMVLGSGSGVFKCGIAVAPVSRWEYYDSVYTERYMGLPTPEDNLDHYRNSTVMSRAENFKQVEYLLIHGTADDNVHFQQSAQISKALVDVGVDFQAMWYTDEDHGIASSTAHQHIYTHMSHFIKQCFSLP

As usually defined, the half-life is how long it takes for the measured level to halve. Take `CC[C@H](C)[C@H](NC(=O)[C@H](CO)NC(=O)[C@H](CCC(=O)O)NC(=O)[C@H](CC(=O)N[C@@H]1O[C@H](CO)[C@@H](O[C@@H]2O[C@H](CO)[C@@H](O[C@@H]3O[C@H](CO[C@H]4O[C@H](CO)[C@@H](O)[C@H](O)[C@@H]4O[C@@H]4O[C@H](CO)[C@@H](O[C@@H]5O[C@H](CO)[C@H](O)[C@H](O)[C@H]5O)[C@H](O)[C@H]4NC(C)=O)[C@@H](O)[C@H](O[C@H]4O[C@H](CO)[C@@H](O)[C@H](O)[C@@H]4O[C@@H]4O[C@H](CO)[C@@H](O[C@@H]5O[C@H](CO)[C@H](O)[C@H](O)[C@H]5O)[C@H](O)[C@H]4NC(C)=O)[C@@H]3O)[C@H](O)[C@H]2NC(C)=O)[C@H](O)[C@H]1O)NC(=O)[C@H](C)NC(=O)[C@H](C)NC(=O)[C@H](CCC(N)=O)NC(=O)CNC(=O)[C@H](CCC(=O)O)NC(=O)[C@H](CC(C)C)NC(=O)[C@H](Cc1ccc(O)cc1)NC(=O)[C@H](CO)NC(=O)[C@H](CO)NC(=O)[C@@H](NC(=O)[C@H](CC(=O)O)NC(=O)[C@H](CO)NC(=O)[C@@H](NC(=O)[C@H](Cc1ccccc1)NC(=O)[C@@H](NC(=O)CNC(=O)[C@H](CCC(=O)O)NC(=O)[C@H](C)NC(=O)[C@@H](N)Cc1c[nH]cn1)[C@@H](C)O)[C@@H](C)O)C(C)C)C(=O)N[C@@H](C)C(=O)N[C@@H](Cc1c[nH]c2ccccc12)C(=O)N[C@@H](CC(C)C)C(=O)N[C@H](C(=O)N[C@@H](CCCCN)C(=O)NCC(=O)N[C@@H](CCCNC(=N)N)C(=O)NCC(=O)O)C(C)C` [Glycan-GLP-1-3(G2)]: the half-life at 200 µM in data set [1] worked out at 12.3 ± 0.162 h. In data set [2], the half-life worked out at 3.088 ± 0.0183 h.
On to `CC[C@H](C)[C@H](NC(=O)[C@H](Cc1ccccc1)NC(=O)[C@H](CCC(=O)O)NC(=O)[C@H](CCCCN)NC(=O)[C@H](C)NC(=O)[C@H](C)NC(=O)[C@H](CCC(N)=O)NC(=O)CNC(=O)[C@H](CCC(=O)O)NC(=O)[C@H](CC(C)C)NC(=O)[C@H](Cc1ccc(O)cc1)NC(=O)[C@H](CO)NC(=O)[C@H](CO)NC(=O)[C@@H](NC(=O)[C@H](CC(=O)O)NC(=O)[C@H](CO)NC(=O)[C@@H](NC(=O)[C@H](Cc1ccccc1)NC(=O)[C@@H](NC(=O)CNC(=O)[C@H](CCC(=O)O)NC(=O)[C@H](C)NC(=O)[C@@H](N)Cc1c[nH]cn1)[C@@H](C)O)[C@@H](C)O)C(C)C)C(=O)N[C@@H](C)C(=O)N[C@@H](Cc1c[nH]c2ccccc12)C(=O)N[C@@H](CC(C)C)C(=O)N[C@H](C(=O)N[C@@H](CC(=O)N[C@@H]1O[C@H](CO)[C@@H](O)[C@H](O)[C@H]1O)C(=O)NCC(=O)N[C@H](C(=O)NCC(=O)O)[C@@H](C)O)C(C)C` [Glc-GLP-1-5], for which the half-life at 200 µM in data set [1] is 1.89 ± 0.197 h. Moreover, in data set [2], the half-life worked out at 0.542 ± 0.0233 h.
Take `CC[C@H](C)[C@H](NC(=O)[C@H](Cc1ccccc1)NC(=O)[C@H](CCC(=O)O)NC(=O)[C@H](CCCCN)NC(=O)[C@H](C)NC(=O)[C@H](C)NC(=O)[C@H](CCC(N)=O)NC(=O)CNC(=O)[C@H](CCC(=O)O)NC(=O)[C@H](CC(C)C)NC(=O)[C@H](Cc1ccc(O)cc1)NC(=O)[C@H](CO)NC(=O)[C@H](CO)NC(=O)[C@@H](NC(=O)[C@H](CC(=O)N[C@@H]1O[C@H](CO)[C@@H](O[C@@H]2O[C@H](CO)[C@@H](O[C@@H]3O[C@H](CO[C@H]4O[C@H](CO)[C@@H](O)[C@H](O)[C@@H]4O[C@@H]4O[C@H](CO)[C@@H](O[C@@H]5O[C@H](CO)[C@H](O)[C@H](O)[C@H]5O)[C@H](O)[C@H]4NC(C)=O)[C@@H](O)[C@H](O[C@H]4O[C@H](CO)[C@@H](O)[C@H](O)[C@@H]4O[C@@H]4O[C@H](CO)[C@@H](O[C@@H]5O[C@H](CO)[C@H](O)[C@H](O)[C@H]5O)[C@H](O)[C@H]4NC(C)=O)[C@@H]3O)[C@H](O)[C@H]2NC(C)=O)[C@H](O)[C@H]1O)NC(=O)[C@H](CO)NC(=O)[C@@H](NC(=O)[C@H](Cc1ccccc1)NC(=O)[C@@H](NC(=O)CNC(=O)[C@H](CCC(=O)O)NC(=O)[C@H](C)NC(=O)[C@@H](N)Cc1c[nH]cn1)[C@@H](C)O)[C@@H](C)O)C(C)C)C(=O)N[C@@H](C)C(=O)N[C@@H](Cc1c[nH]c2ccccc12)C(=O)N[C@@H](CC(C)C)C(=O)N[C@H](C(=O)N[C@@H](CCCCN)C(=O)NCC(=O)N[C@@H](CCCNC(=N)N)C(=O)NCC(=O)O)C(C)C` [Glycan-GLP-1-1(G2)]: the half-life at 200 µM in data set [1] is 5.92 ± 0.155 h. For the same molecule, in data set [2], the half-life worked out at 0.818 ± 0.095 h.
Consider `CC[C@H](C)[C@H](NC(=O)[C@H](CO)NC(=O)[C@H](CCC(=O)O)NC(=O)[C@H](CC(=O)N[C@@H]1O[C@H](CO)[C@@H](O[C@@H]2O[C@H](CO)[C@@H](O[C@@H]3O[C@H](CO[C@H]4O[C@H](CO)[C@@H](O)[C@H](O)[C@@H]4O[C@@H]4O[C@H](CO)[C@@H](O[C@@H]5O[C@H](CO[C@]6(C(=O)O)C[C@H](O)[C@@H](NC(C)=O)[C@H]([C@H](O)[C@H](O)CO)O6)[C@H](O)[C@H](O)[C@H]5O)[C@H](O)[C@H]4NC(C)=O)[C@@H](O)[C@H](O[C@H]4O[C@H](CO)[C@@H](O)[C@H](O)[C@@H]4O[C@@H]4O[C@H](CO)[C@@H](O[C@@H]5O[C@H](CO[C@]6(C(=O)O)C[C@H](O)[C@@H](NC(C)=O)[C@H]([C@H](O)[C@H](O)CO)O6)[C@H](O)[C@H](O)[C@H]5O)[C@H](O)[C@H]4NC(C)=O)[C@@H]3O)[C@H](O)[C@H]2NC(C)=O)[C@H](O)[C@H]1O)NC(=O)[C@H](C)NC(=O)[C@H](C)NC(=O)[C@H](CCC(N)=O)NC(=O)CNC(=O)[C@H](CCC(=O)O)NC(=O)[C@H](CC(C)C)NC(=O)[C@H](Cc1ccc(O)cc1)NC(=O)[C@H](CO)NC(=O)[C@H](CO)NC(=O)[C@@H](NC(=O)[C@H](CC(=O)O)NC(=O)[C@H](CO)NC(=O)[C@@H](NC(=O)[C@H](Cc1ccccc1)NC(=O)[C@@H](NC(=O)CNC(=O)[C@H](CCC(=O)O)NC(=O)[C@H](C)NC(=O)[C@@H](N)Cc1c[nH]cn1)[C@@H](C)O)[C@@H](C)O)C(C)C)C(=O)N[C@@H](C)C(=O)N[C@@H](Cc1c[nH]c2ccccc12)C(=O)N[C@@H](CC(C)C)C(=O)N[C@H](C(=O)N[C@@H](CCCCN)C(=O)NCC(=O)N[C@@H](CCCNC(=N)N)C(=O)NCC(=O)O)C(C)C` [Glycan-GLP-1-3(G2S2)], for which, in data set [1], the half-life at 200 µM amounted to 23.22 ± 0.148 h and the “Fold in vitro half-life relative to native GLP-1, serum incubation” value was determined as 25.0 fold. Also, in data set [2], the half-life was 6.245 ± 0.03 h and the “Fold in vitro half-life relative to native GLP-1, DPP-IV incubation” value stood at 36.7 fold.
Consider `CC[C@H](C)[C@H](NC(=O)[C@H](CO)NC(=O)[C@H](CCC(=O)O)NC(=O)[C@H](CC(=O)N[C@@H]1O[C@H](CO)[C@@H](O)[C@H](O)[C@H]1O)NC(=O)[C@H](C)NC(=O)[C@H](C)NC(=O)[C@H](CCC(N)=O)NC(=O)CNC(=O)[C@H](CCC(=O)O)NC(=O)[C@H](CC(C)C)NC(=O)[C@H](Cc1ccc(O)cc1)NC(=O)[C@H](CO)NC(=O)[C@H](CO)NC(=O)[C@@H](NC(=O)[C@H](CC(=O)O)NC(=O)[C@H](CO)NC(=O)[C@@H](NC(=O)[C@H](Cc1ccccc1)NC(=O)[C@@H](NC(=O)CNC(=O)[C@H](CCC(=O)O)NC(=O)[C@H](C)NC(=O)[C@@H](N)Cc1c[nH]cn1)[C@@H](C)O)[C@@H](C)O)C(C)C)C(=O)N[C@@H](C)C(=O)N[C@@H](Cc1c[nH]c2ccccc12)C(=O)N[C@@H](CC(C)C)C(=O)N[C@H](C(=O)N[C@@H](CCCCN)C(=O)NCC(=O)N[C@@H](CCCNC(=N)N)C(=O)NCC(=O)O)C(C)C` [Glc-GLP-1-3], for which the half-life at 200 µM in data set [1] was 2.31 ± 0.242 h. In data set [2], this molecule came in with a half-life of 0.768 ± 0.0583 h.
Consider `CC[C@H](C)[C@H](NC(=O)[C@H](Cc1ccccc1)NC(=O)[C@H](CCC(=O)O)NC(=O)[C@H](CCCCN)NC(=O)[C@H](C)NC(=O)[C@H](C)NC(=O)[C@H](CCC(N)=O)NC(=O)CNC(=O)[C@H](CCC(=O)O)NC(=O)[C@H](CC(C)C)NC(=O)[C@H](Cc1ccc(O)cc1)NC(=O)[C@H](CO)NC(=O)[C@H](CO)NC(=O)[C@@H](NC(=O)[C@H](CC(=O)O)NC(=O)[C@H](CO)NC(=O)[C@@H](NC(=O)[C@H](Cc1ccccc1)NC(=O)[C@@H](NC(=O)CNC(=O)[C@H](CCC(=O)O)NC(=O)[C@H](C)NC(=O)[C@@H](N)Cc1c[nH]cn1)[C@@H](C)O)[C@@H](C)O)C(C)C)C(=O)N[C@@H](C)C(=O)N[C@@H](Cc1c[nH]c2ccccc12)C(=O)N[C@@H](CC(C)C)C(=O)N[C@H](C(=O)N[C@@H](CC(=O)N[C@@H]1O[C@H](CO)[C@@H](O[C@@H]2O[C@H](CO)[C@@H](O[C@@H]3O[C@H](CO[C@H]4O[C@H](CO)[C@@H](O)[C@H](O)[C@@H]4O[C@@H]4O[C@H](CO)[C@@H](O[C@@H]5O[C@H](CO[C@]6(C(=O)O)C[C@H](O)[C@@H](NC(C)=O)[C@H]([C@H](O)[C@H](O)CO)O6)[C@H](O)[C@H](O)[C@H]5O)[C@H](O)[C@H]4NC(C)=O)[C@@H](O)[C@H](O[C@H]4O[C@H](CO)[C@@H](O)[C@H](O)[C@@H]4O[C@@H]4O[C@H](CO)[C@@H](O[C@@H]5O[C@H](CO[C@]6(C(=O)O)C[C@H](O)[C@@H](NC(C)=O)[C@H]([C@H](O)[C@H](O)CO)O6)[C@H](O)[C@H](O)[C@H]5O)[C@H](O)[C@H]4NC(C)=O)[C@@H]3O)[C@H](O)[C@H]2NC(C)=O)[C@H](O)[C@H]1O)C(=O)NCC(=O)N[C@H](C(=O)NCC(=O)O)[C@@H](C)O)C(C)C` [Glycan-GLP-1-5(G2S2)], for which, in data set [1], the half-life at 200 µM turned out to be 12.9 ± 0.17 h and the “Fold in vitro half-life relative to native GLP-1, serum incubation” value is listed as 13.9 fold. Besides, in data set [2], the half-life stood at 4.088 ± 0.0217 h and the “Fold in vitro half-life relative to native GLP-1, DPP-IV incubation” value was found to be 24.0 fold.
